Assay results: ChEMBL document CHEMBL1145302, “Synthesis and antibacterial activity of C6-carbazate ketolides” (2006)
Values after ≈ are worked out from the molar mass of the structure shown.

Tests used:
Assay type in all cases: functional
[1] = tested on: Staphylococcus haemolyticus; assay: Antibacterial activity against erythromycin resistant Staphylococcus haemolyticus OC3882 containing erm(C)
[2] = tested on: Haemophilus influenzae; assay: Antibacterial activity against telithromycin-susceptible Haemophilus influenzae ATCC 49766
[3] = tested on: Streptococcus pneumoniae; assay: Antibacterial activity against erythromycin-resistant Streptococcus pneumoniae OC4421 containing mef(A)
[4] = tested on: Staphylococcus aureus; assay: Antibacterial activity against erythromycin-susceptible Staphylococcus aureus Smith OC4172
[5] = tested on: Streptococcus pneumoniae; assay: Antibacterial activity against erythromycin-susceptible Streptococcus pneumoniae OC9132
[6] = tested on: Streptococcus pneumoniae; assay: Antibacterial activity against erythromycin-resistant Streptococcus pneumoniae OC4051 containing erm(B)
[7] = tested on: Staphylococcus aureus; assay: Antibacterial activity against erythromycin-susceptible Staphylococcus aureus Smith OC4172 in presence of 50% mouse serum
[8] = tested on: Staphylococcus aureus; assay: Antibacterial activity against Staphylococcus aureus Smith infected in orally dosed Swiss Webster mouse septicemia model; settings: po
[9] = tested on: Staphylococcus aureus; assay: Antibacterial activity against Staphylococcus aureus Smith infected in sc dosed Swiss Webster mouse septicemia model

Compound | MIC [1] | MIC [2] | MIC [3] | MIC [4] | MIC [5] | MIC [6] | MIC [7] | ED50 [8] | ED50 [9]
CC[C@H]1OC(=O)[C@H](C)C(=O)[C@H](C)[C@@H](O[C@@H]2O[C@H](C)C[C@H](N(C)C)[C@H]2O)[C@](C)(OC(=O)NNCCc2cnc3ccccc3c2)C[C@@H](C)C(=O)[C@H](C)[C@H]2NC(=O)O[C@@]21C | 0.5 µg/mL (≈ 0.616 µM) | 0.5 µg/mL (≈ 0.616 µM) | 0.25 µg/mL (≈ 0.308 µM) | 0.5 µg/mL (≈ 0.616 µM) | 0.03 µg/mL (≈ 0.0369 µM) | 0.06 µg/mL (≈ 0.0739 µM) | 1 µg/mL |  | 
CC[C@H]1OC(=O)[C@H](C)C(=O)[C@H](C)[C@@H](O[C@@H]2O[C@H](C)C[C@H](N(C)C)[C@H]2O)[C@](C)(OC(=O)N(C)NCCc2ccc(-c3cnccn3)cc2)C[C@@H](C)C(=O)[C@H](C)[C@H]2NC(=O)O[C@@]21C | 2 µg/mL (≈ 2.34 µM) | 8 µg/mL (≈ 9.38 µM) | 0.5 µg/mL (≈ 0.586 µM) | 0.5 µg/mL (≈ 0.586 µM) | 0.06 µg/mL (≈ 0.0703 µM) | 0.12 µg/mL (≈ 0.141 µM) | 2 µg/mL |  | 
CC[C@H]1OC(=O)[C@H](C)C(=O)[C@H](C)[C@@H](O[C@@H]2O[C@H](C)C[C@H](N(C)C)[C@H]2O)[C@](C)(OC(=O)NN(C)CCc2cnc3ccccc3c2)C[C@@H](C)C(=O)[C@H](C)[C@H]2NC(=O)O[C@@]21C | 8 µg/mL (≈ 9.69 µM) | 2 µg/mL (≈ 2.42 µM) | 0.5 µg/mL (≈ 0.605 µM) | 1 µg/mL (≈ 1.21 µM) | 0.06 µg/mL (≈ 0.0726 µM) | 0.12 µg/mL (≈ 0.145 µM) | 2 µg/mL |  | 
CC[C@H]1OC(=O)[C@H](C)C(=O)[C@H](C)[C@@H](O[C@@H]2O[C@H](C)C[C@H](N(C)C)[C@H]2O)[C@](C)(OC(=O)NNCCc2cccc(-c3ncccn3)c2)C[C@@H](C)C(=O)[C@H](C)[C@H]2NC(=O)O[C@@]21C | 0.25 µg/mL (≈ 0.298 µM) | 2 µg/mL (≈ 2.38 µM) | 0.25 µg/mL (≈ 0.298 µM) | 0.25 µg/mL (≈ 0.298 µM) | 0.03 µg/mL (≈ 0.0358 µM) | 0.06 µg/mL (≈ 0.0715 µM) | 1 µg/mL | > 20 mg/kg | 4.3 mg/kg
CC[C@H]1OC(=O)[C@H](C)C(=O)[C@H](C)[C@@H](O[C@@H]2O[C@H](C)C[C@H](N(C)C)[C@H]2O)[C@](C)(OC(=O)NN(C)CCc2ccc(-c3cnccn3)cc2)C[C@@H](C)C(=O)[C@H](C)[C@H]2NC(=O)O[C@@]21C | 0.5 µg/mL (≈ 0.586 µM) | 2 µg/mL (≈ 2.34 µM) | 0.25 µg/mL (≈ 0.293 µM) | 0.25 µg/mL (≈ 0.293 µM) | 0.03 µg/mL (≈ 0.0352 µM) | 0.06 µg/mL (≈ 0.0703 µM) | 0.5 µg/mL |  | 
CC[C@H]1OC(=O)[C@H](C)C(=O)[C@H](C)[C@@H](O[C@@H]2O[C@H](C)C[C@H](N(C)C)[C@H]2O)[C@](C)(OC(=O)NN(C)CCCc2ccc(-c3ncccn3)cc2)C[C@@H](C)C(=O)[C@H](C)[C@H]2NC(=O)O[C@@]21C | 1 µg/mL (≈ 1.15 µM) | 8 µg/mL (≈ 9.23 µM) | 0.5 µg/mL (≈ 0.577 µM) | 0.5 µg/mL (≈ 0.577 µM) | 0.06 µg/mL (≈ 0.0692 µM) | 0.5 µg/mL (≈ 0.577 µM) | 1 µg/mL |  | 
CC[C@H]1OC(=O)[C@H](C)C(=O)[C@H](C)[C@@H](O[C@@H]2O[C@H](C)C[C@H](N(C)C)[C@H]2O)[C@](C)(OC(=O)NN(CC)CCc2ccc(-c3ncccn3)cc2)C[C@@H](C)C(=O)[C@H](C)[C@H]2NC(=O)O[C@@]21C | 0.5 µg/mL (≈ 0.577 µM) | 8 µg/mL (≈ 9.23 µM) | 0.25 µg/mL (≈ 0.288 µM) | 0.25 µg/mL (≈ 0.288 µM) | 0.12 µg/mL (≈ 0.138 µM) | 0.12 µg/mL (≈ 0.138 µM) | 2 µg/mL |  | 
CC[C@H]1OC(=O)[C@H](C)C(=O)[C@H](C)[C@@H](O[C@@H]2O[C@H](C)C[C@H](N(C)C)[C@H]2O)[C@](C)(OC(=O)NN(C)C/C=C/c2ccc(-c3ncccn3)cc2)C[C@@H](C)C(=O)[C@H](C)[C@H]2NC(=O)O[C@@]21C | 0.5 µg/mL (≈ 0.578 µM) | 8 µg/mL (≈ 9.25 µM) | 0.5 µg/mL (≈ 0.578 µM) | 0.25 µg/mL (≈ 0.289 µM) | 0.03 µg/mL (≈ 0.0347 µM) | 0.25 µg/mL (≈ 0.289 µM) | 0.5 µg/mL |  | 
CC[C@H]1OC(=O)[C@H](C)C(=O)[C@H](C)[C@@H](O[C@@H]2O[C@H](C)C[C@H](N(C)C)[C@H]2O)[C@](C)(OC(=O)NN(C)CCc2ccc(-c3ncccn3)cc2F)C[C@@H](C)C(=O)[C@H](C)[C@H]2NC(=O)O[C@@]21C | 0.5 µg/mL (≈ 0.574 µM) | 4 µg/mL (≈ 4.59 µM) | 0.25 µg/mL (≈ 0.287 µM) | 0.5 µg/mL (≈ 0.574 µM) | 0.06 µg/mL (≈ 0.0689 µM) | 0.06 µg/mL (≈ 0.0689 µM) | 1 µg/mL | > 20 mg/kg | 2.3 mg/kg
CC[C@H]1OC(=O)[C@H](C)C(=O)[C@H](C)[C@@H](O[C@@H]2O[C@H](C)C[C@H](N(C)C)[C@H]2O)[C@](C)(OC(=O)NNCCc2ccc(-c3cnccn3)cc2)C[C@@H](C)C(=O)[C@H](C)[C@H]2NC(=O)O[C@@]21C | 0.25 µg/mL (≈ 0.298 µM) | 2 µg/mL (≈ 2.38 µM) | 0.25 µg/mL (≈ 0.298 µM) | 0.25 µg/mL (≈ 0.298 µM) | 0.03 µg/mL (≈ 0.0358 µM) | 0.06 µg/mL (≈ 0.0715 µM) | 0.5 µg/mL |  | 
CC[C@H]1OC(=O)[C@H](C)C(=O)[C@H](C)[C@@H](O[C@@H]2O[C@H](C)C[C@H](N(C)C)[C@H]2O)[C@](C)(OC(=O)NN(C)CCc2ccc(-c3ncco3)cc2)C[C@@H](C)C(=O)[C@H](C)[C@H]2NC(=O)O[C@@]21C | 0.5 µg/mL (≈ 0.594 µM) | 2 µg/mL (≈ 2.38 µM) | 0.12 µg/mL (≈ 0.143 µM) | 0.25 µg/mL (≈ 0.297 µM) | 0.03 µg/mL (≈ 0.0356 µM) | 0.06 µg/mL (≈ 0.0713 µM) | 0.5 µg/mL |  | 
CC[C@H]1OC(=O)[C@H](C)C(=O)[C@H](C)[C@@H](O[C@@H]2O[C@H](C)C[C@H](N(C)C)[C@H]2O)[C@](C)(OC(=O)N(C)N(C)CCc2ccc(-c3cnccn3)cc2)C[C@@H](C)C(=O)[C@H](C)[C@H]2NC(=O)O[C@@]21C | 8 µg/mL (≈ 9.23 µM) | 16 µg/mL (≈ 18.5 µM) | 0.5 µg/mL (≈ 0.577 µM) | 2 µg/mL (≈ 2.31 µM) | 0.06 µg/mL (≈ 0.0692 µM) | 0.5 µg/mL (≈ 0.577 µM) | 4 µg/mL |  | 
CC[C@H]1OC(=O)[C@H](C)C(=O)[C@H](C)[C@@H](O[C@@H]2O[C@H](C)C[C@H](N(C)C)[C@H]2O)[C@](C)(OC(=O)NNCCc2ccc(-c3ncccn3)cc2)C[C@@H](C)C(=O)[C@H](C)[C@H]2NC(=O)O[C@@]21C | 0.25 µg/mL (≈ 0.298 µM) | 4 µg/mL (≈ 4.77 µM) | 0.12 µg/mL (≈ 0.143 µM) | 0.25 µg/mL (≈ 0.298 µM) | 0.03 µg/mL (≈ 0.0358 µM) | 0.12 µg/mL (≈ 0.143 µM) | 0.25 µg/mL |  | 
CC[C@H]1OC(=O)[C@H](C)C(=O)[C@H](C)[C@@H](O[C@@H]2O[C@H](C)C[C@H](N(C)C)[C@H]2O)[C@](C)(OC(=O)NN(C)CCc2ccc(-c3ncccn3)s2)C[C@@H](C)C(=O)[C@H](C)[C@H]2NC(=O)O[C@@]21C | 0.25 µg/mL (≈ 0.291 µM) | 2 µg/mL (≈ 2.33 µM) | 0.12 µg/mL (≈ 0.14 µM) | 0.25 µg/mL (≈ 0.291 µM) | 0.03 µg/mL (≈ 0.0349 µM) | 0.06 µg/mL (≈ 0.0698 µM) | 0.5 µg/mL | > 20 mg/kg | 4.8 mg/kg
CC[C@H]1OC(=O)[C@H](C)C(=O)[C@H](C)[C@@H](O[C@@H]2O[C@H](C)C[C@H](N(C)C)[C@H]2O)[C@](C)(OC(=O)NN(C)Cc2ccc(-c3ncccn3)cc2)C[C@@H](C)C(=O)[C@H](C)[C@H]2NC(=O)O[C@@]21C | 2 µg/mL (≈ 2.38 µM) | 4 µg/mL (≈ 4.77 µM) | 1 µg/mL (≈ 1.19 µM) | 2 µg/mL (≈ 2.38 µM) | 0.06 µg/mL (≈ 0.0715 µM) | 0.5 µg/mL (≈ 0.596 µM) | 8 µg/mL |  | 
CC[C@H]1OC(=O)[C@H](C)C(=O)[C@H](C)[C@@H](O[C@@H]2O[C@H](C)C[C@H](N(C)C)[C@H]2O)[C@](C)(OC(=O)NN(C)CCc2ccc(-c3ncccn3)cc2)C[C@@H](C)C(=O)[C@H](C)[C@H]2NC(=O)O[C@@]21C | 0.5 µg/mL (≈ 0.586 µM) | 4 µg/mL (≈ 4.69 µM) | 0.25 µg/mL (≈ 0.293 µM) | 0.25 µg/mL (≈ 0.293 µM) | 0.03 µg/mL (≈ 0.0352 µM) | 0.06 µg/mL (≈ 0.0703 µM) | 0.5 µg/mL | > 20 mg/kg | 3.3 mg/kg
CC[C@H]1OC(=O)[C@H](C)C(=O)[C@H](C)[C@@H](O[C@@H]2O[C@H](C)C[C@H](N(C)C)[C@H]2O)[C@](C)(OC(=O)NN)C[C@@H](C)C(=O)[C@H](C)[C@H]2NC(=O)O[C@@]21C | 16 µg/mL (≈ 24.4 µM) | 8 µg/mL (≈ 12.2 µM) | 8 µg/mL (≈ 12.2 µM) | 8 µg/mL (≈ 12.2 µM) | 0.5 µg/mL (≈ 0.761 µM) | 8 µg/mL (≈ 12.2 µM) | 2 µg/mL |  | 
CC[C@H]1OC(=O)[C@H](C)[C@@H](O[C@H]2C[C@@](C)(OC)[C@@H](O)[C@H](C)O2)[C@H](C)[C@@H](O[C@@H]2O[C@H](C)C[C@H](N(C)C)[C@H]2O)[C@](C)(O)C[C@@H](C)C(=O)[C@H](C)[C@@H](O)[C@]1(C)O [ERYTHROMYCIN] | > 16 µg/mL | 8 µg/mL (≈ 10.9 µM) | 4 µg/mL (≈ 5.45 µM) | 1 µg/mL (≈ 1.36 µM) | 0.06 µg/mL (≈ 0.0818 µM) | > 16 µg/mL | 0.06 µg/mL |  | 
CC[C@H]1OC(=O)[C@H](C)C(=O)[C@H](C)[C@@H](O[C@@H]2O[C@H](C)C[C@H](N(C)C)[C@H]2O)[C@](C)(OC)C[C@@H](C)C(=O)[C@H](C)[C@H]2N(CCCCn3cnc(-c4cccnc4)c3)C(=O)O[C@]12C [TELITHROMYCIN] | 0.25 µg/mL (≈ 0.308 µM) | 1 µg/mL (≈ 1.23 µM) | 0.12 µg/mL (≈ 0.148 µM) | 0.25 µg/mL (≈ 0.308 µM) | 0.06 µg/mL (≈ 0.0739 µM) | 0.06 µg/mL (≈ 0.0739 µM) | 0.5 µg/mL | > 20 mg/kg | 4.3 mg/kg
